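Cells were grown in 96-well plates and exposed to each compound for 48 hours at five concentrations; endpoints were interpolated linearly between bracketing concentrations, or set to the highest concentration if not reached. TGI marks complete inhibition of growth.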 Activity calls are given as the source filed them. Cut-off read from the data, not from the text of the source: active = GI50 below about 0.43 µM; inactive = the rest.
How the values were obtained:
Assay in all cases: NCI anticancer screen, dose series, 48 h
MDA-N = test system: MDA-N
MCF7 breast = test system: MCF7 breast
MALME-3M melanoma = test system: MALME-3M melanoma
HS 578T breast = test system: HS 578T breast
T-47D breast = test system: T-47D breast
EKVX NSCLC = test system: EKVX NSCLC
IGROV1 ovarian = test system: IGROV1 ovarian
COLO 205 colon = test system: COLO 205 colon
A549 NSCLC = test system: A549 NSCLC
SNB-75 CNS = test system: SNB-75 CNS
UACC-257 melanoma = test system: UACC-257 melanoma
HCT-15 colon = test system: HCT-15 colon
SF-268 CNS = test system: SF-268 CNS
OVCAR-3 ovarian = test system: OVCAR-3 ovarian
K-562 leukemia = test system: K-562 leukemia
CAKI-1 renal = test system: CAKI-1 renal
OVCAR-8 ovarian = test system: OVCAR-8 ovarian
SK-MEL-5 melanoma = test system: SK-MEL-5 melanoma
NCI-H226 lung = test system: NCI-H226 lung
BT-549 breast = test system: BT-549 breast
LOX IMVI melanoma = test system: LOX IMVI melanoma
SR leukemia = test system: SR leukemia
SK-MEL-2 melanoma = test system: SK-MEL-2 melanoma
MDA-MB-435 = test system: MDA-MB-435
HOP-62 NSCLC = test system: HOP-62 NSCLC
M14 melanoma = test system: M14 melanoma
SK-OV-3 ovarian = test system: SK-OV-3 ovarian
HL-60(TB) leukemia = test system: HL-60(TB) leukemia
MDA-MB-231 breast = test system: MDA-MB-231 breast
MOLT-4 leukemia = test system: MOLT-4 leukemia
HCT-116 colon = test system: HCT-116 colon
HOP-92 NSCLC = test system: HOP-92 NSCLC
HCC-2998 colon = test system: HCC-2998 colon
SN12C renal = test system: SN12C renal
NCI-H460 lung = test system: NCI-H460 lung
U251 CNS = test system: U251 CNS
PC-3 prostate = test system: PC-3 prostate
SNB-19 CNS = test system: SNB-19 CNS
OVCAR-5 ovarian = test system: OVCAR-5 ovarian
UACC-62 melanoma = test system: UACC-62 melanoma
SF-295 CNS = test system: SF-295 CNS
HT29 colon = test system: HT29 colon
CCRF-CEM leukemia = test system: CCRF-CEM leukemia
UO-31 renal = test system: UO-31 renal
SF-539 CNS = test system: SF-539 CNS
NCI/ADR-RES ovarian = test system: NCI/ADR-RES ovarian
RXF 393 renal = test system: RXF 393 renal
TK-10 renal = test system: TK-10 renal
SW-620 colon = test system: SW-620 colon
SK-MEL-28 melanoma = test system: SK-MEL-28 melanoma
A498 renal = test system: A498 renal
DU-145 prostate = test system: DU-145 prostate
OVCAR-4 ovarian = test system: OVCAR-4 ovarian
NCI-H23 lung = test system: NCI-H23 lung
RPMI-8226 leukemia = test system: RPMI-8226 leukemia
786-0 renal = test system: 786-0 renal
KM12 colon = test system: KM12 colon
ACHN renal = test system: ACHN renal
NCI-H522 lung = test system: NCI-H522 lung

O=c1cc(-c2ccc(O)c(O)c2-c2c(O)cc(O)c3c(=O)cc(-c4ccc(O)c(O)c4-c4c(O)cc(O)c5c(=O)cc(-c6ccc(O)c(O)c6)oc45)oc23)oc2cc(O)cc(O)c12
outcome (MDA-N): inactive | outcome (MCF7 breast): inactive | outcome (MALME-3M melanoma): inactive | outcome (HS 578T breast): inactive | outcome (T-47D breast): inactive | outcome (EKVX NSCLC): inactive | outcome (IGROV1 ovarian): inactive | outcome (COLO 205 colon): inactive | outcome (A549 NSCLC): inactive | outcome (SNB-75 CNS): inactive | outcome (UACC-257 melanoma): inactive | outcome (HCT-15 colon): inactive | outcome (SF-268 CNS): inactive | outcome (OVCAR-3 ovarian): inactive | outcome (K-562 leukemia): inactive | outcome (CAKI-1 renal): inactive | outcome (OVCAR-8 ovarian): inactive | outcome (SK-MEL-5 melanoma): inactive | outcome (NCI-H226 lung): inactive | outcome (BT-549 breast): inactive | outcome (LOX IMVI melanoma): inactive | outcome (SR leukemia): inactive | outcome (SK-MEL-2 melanoma): inactive | outcome (MDA-MB-435): inactive | outcome (HOP-62 NSCLC): inactive | outcome (M14 melanoma): inactive | outcome (SK-OV-3 ovarian): inactive | outcome (HL-60(TB) leukemia): inactive | outcome (MDA-MB-231 breast): inactive | outcome (MOLT-4 leukemia): inactive | outcome (HCT-116 colon): inactive | outcome (HOP-92 NSCLC): inactive | outcome (HCC-2998 colon): inactive | outcome (SN12C renal): inactive | outcome (NCI-H460 lung): inactive | outcome (U251 CNS): inactive | outcome (PC-3 prostate): inactive | outcome (SNB-19 CNS): inactive | outcome (OVCAR-5 ovarian): inactive | outcome (UACC-62 melanoma): inactive | outcome (SF-295 CNS): inactive | outcome (HT29 colon): inactive | outcome (CCRF-CEM leukemia): inactive | outcome (UO-31 renal): inactive | outcome (SF-539 CNS): inactive | outcome (NCI/ADR-RES ovarian): inactive | outcome (RXF 393 renal): inactive | outcome (TK-10 renal): inactive | outcome (SW-620 colon): inactive | outcome (SK-MEL-28 melanoma): inactive | outcome (A498 renal): inactive | outcome (DU-145 prostate): inactive | outcome (OVCAR-4 ovarian): inactive | outcome (NCI-H23 lung): inactive

Nc1ccn(C2OC(COP(=O)(O)OCC3OC(n4cc(F)c(=O)[nH]c4=O)CC3O)C(O)C2O)c(=O)n1 (stereo unspecified)
TGI (MDA-N): > 100 µM | TGI (MCF7 breast): > 100 µM | TGI (MALME-3M melanoma): > 100 µM | TGI (HS 578T breast): > 100 µM | TGI (T-47D breast): > 100 µM | TGI (RPMI-8226 leukemia): > 100 µM | TGI (EKVX NSCLC): > 100 µM | TGI (IGROV1 ovarian): > 100 µM | TGI (COLO 205 colon): > 100 µM | TGI (786-0 renal): > 100 µM | TGI (A549 NSCLC): > 100 µM | TGI (SNB-75 CNS): > 100 µM | TGI (UACC-257 melanoma): > 100 µM | TGI (HCT-15 colon): > 100 µM | TGI (SF-268 CNS): > 100 µM | TGI (OVCAR-3 ovarian): > 100 µM | TGI (K-562 leukemia): > 100 µM | TGI (CAKI-1 renal): > 50.1 µM | TGI (OVCAR-8 ovarian): > 100 µM | TGI (SK-MEL-5 melanoma): > 100 µM | TGI (NCI-H226 lung): > 100 µM | TGI (BT-549 breast): > 100 µM | TGI (LOX IMVI melanoma): > 100 µM | TGI (KM12 colon): > 100 µM | TGI (SR leukemia): > 88.6 µM | TGI (SK-MEL-2 melanoma): > 100 µM | TGI (MDA-MB-435): > 100 µM | TGI (ACHN renal): > 34.2 µM | TGI (M14 melanoma): 12.9 µM | TGI (SK-OV-3 ovarian): > 100 µM | TGI (MDA-MB-231 breast): > 100 µM | TGI (MOLT-4 leukemia): 7.95 µM | TGI (HCT-116 colon): > 100 µM | TGI (HOP-92 NSCLC): > 100 µM | TGI (HCC-2998 colon): > 100 µM | TGI (SN12C renal): > 100 µM | TGI (U251 CNS): > 100 µM | TGI (PC-3 prostate): > 100 µM | TGI (SNB-19 CNS): > 100 µM | TGI (OVCAR-5 ovarian): > 100 µM | TGI (UACC-62 melanoma): > 100 µM | TGI (SF-295 CNS): > 100 µM | TGI (HT29 colon): > 100 µM | TGI (UO-31 renal): > 100 µM | TGI (SF-539 CNS): > 100 µM | TGI (NCI/ADR-RES ovarian): > 100 µM | TGI (RXF 393 renal): > 100 µM | TGI (TK-10 renal): > 100 µM | TGI (SW-620 colon): > 100 µM | TGI (SK-MEL-28 melanoma): > 100 µM | TGI (A498 renal): 99.3 µM | TGI (DU-145 prostate): > 100 µM | TGI (OVCAR-4 ovarian): > 100 µM | TGI (NCI-H23 lung): > 42.1 µM | TGI (NCI-H522 lung): > 100 µM

CCCCCCCC/C=C\CCCCCCC/C=C1/C[C@](/C=C/C(=O)OC)(CO)OC1=O
TGI (MDA-N): 3.19 µM | TGI (MCF7 breast): 20.8 µM | TGI (MALME-3M melanoma): 8.74 µM | TGI (HS 578T breast): 9.29 µM | TGI (T-47D breast): 19.8 µM | TGI (EKVX NSCLC): 23 µM | TGI (IGROV1 ovarian): 23.7 µM | TGI (COLO 205 colon): 5.04 µM | TGI (786-0 renal): 10.3 µM | TGI (A549 NSCLC): 17.3 µM | TGI (SNB-75 CNS): 20.4 µM | TGI (UACC-257 melanoma): 29.6 µM | TGI (HCT-15 colon): 20.5 µM | TGI (SF-268 CNS): 19.7 µM | TGI (OVCAR-3 ovarian): 24 µM | TGI (K-562 leukemia): > 32.5 µM | TGI (CAKI-1 renal): 12.5 µM | TGI (OVCAR-8 ovarian): 19.2 µM | TGI (SK-MEL-5 melanoma): 18 µM | TGI (NCI-H226 lung): 15.8 µM | TGI (BT-549 breast): 17.8 µM | TGI (LOX IMVI melanoma): 12.8 µM | TGI (KM12 colon): 23.9 µM | TGI (SR leukemia): > 31.7 µM | TGI (SK-MEL-2 melanoma): 27.6 µM | TGI (MDA-MB-435): 7.41 µM | TGI (HOP-62 NSCLC): 19 µM | TGI (ACHN renal): 16.7 µM | TGI (M14 melanoma): 11.6 µM | TGI (SK-OV-3 ovarian): 24.3 µM | TGI (HL-60(TB) leukemia): 10.3 µM | TGI (MDA-MB-231 breast): 17.7 µM | TGI (MOLT-4 leukemia): > 21.5 µM | TGI (HCT-116 colon): 15.5 µM | TGI (HOP-92 NSCLC): 20.3 µM | TGI (HCC-2998 colon): 10.1 µM | TGI (SN12C renal): 14.8 µM | TGI (NCI-H460 lung): 19.9 µM | TGI (U251 CNS): 21.2 µM | TGI (PC-3 prostate): 14.5 µM | TGI (SNB-19 CNS): 20.3 µM | TGI (OVCAR-5 ovarian): 20.3 µM | TGI (UACC-62 melanoma): 22.4 µM | TGI (SF-295 CNS): 17.1 µM | TGI (HT29 colon): 20.9 µM | TGI (UO-31 renal): 15 µM | TGI (SF-539 CNS): 2.84 µM | TGI (NCI/ADR-RES ovarian): 24 µM | TGI (RXF 393 renal): 28.5 µM | TGI (TK-10 renal): 15.3 µM | TGI (SW-620 colon): 11.4 µM | TGI (SK-MEL-28 melanoma): 10.2 µM | TGI (A498 renal): 21.2 µM | TGI (DU-145 prostate): 23.4 µM | TGI (OVCAR-4 ovarian): 16.9 µM | TGI (NCI-H23 lung): 24.9 µM | TGI (NCI-H522 lung): 17.6 µM

From PubChem BioAssay (NCI)
